# Data from article PMC7083851, “Extended pharmacodynamic responses observed upon PROTAC-mediated degradation of RIPK2” (Communications Biology, 2020).
# Several values for one entry are separate records, joined by “and”; a condition that tells them apart may be missing. Equal entries are not always repeated.
# How the values were obtained:
# [1] = Blood concentrations after subcutaneous dosing in rat PK/PD studies; type: in vivo; conditions: rat, […] Q3D SC
# Protocol: Female CD rats (7–8 weeks old on arrival, Charles River Ltd.) were placed into groups using a randomization schedule based on body weight prior to the study start. All animals were acclimatized for a minimum of one week prior to the experiment commencing. […] PROTAC 4 was dissolved in saline with the pH adjusted to 5.0 with sodium hydroxide (1 M).
# [2] = test system: RIPK2; assay: In vivo RIPK2 degradation in rat (PBMCs isolated from blood, Western blot); conditions: for RIPK2: fig 5e, individual rats 6-10, time 0 = 100; for RIPK2 (time 0 = 100): rats 1-4, fig 5c
# Protocol: Rat PK/PD studies: On arrival, all rats were housed in a plastic solid bottom cage in groups of 2–3 with access to food and water ad libitum and under a 12 h light–dark cycle. Male CD or Wistar Han rats (7–9 weeks old, Charles River UK Ltd.) were randomly allocated to treatment groups upon arrival. Female CD rats (7–8 weeks old on arrival, Charles River Ltd.) were placed into groups using a randomization schedule based on body weight prior to the study start. All animals were acclimatized for a minimum of one week prior to the experiment commencing.
# Subcutaneous PROTAC solution formulations were prepared on the day of dosing as outlined below and filtered through a 0.22 µm Millex PVDF filter (Millipore) prior to PROTAC administration. PROTAC 4 was dissolved in saline with the pH adjusted to 5.0 with sodium hydroxide (1 M). […].
# (§1) Ex vivo stimulation of rat blood with L18-MDP for PD: PPD blood samples taken prior to PROTAC administration or at fixed timepoints post PROTAC administration through the course of the study, were treated ex vivo with 100 ng/mL L18-MDP (Invivogen) or vehicle (0.1% DMSO) and incubated for 4 h. Following centrifugation, plasma was collected for cytokines analysis as detailed in cytokines assay section. Additionally, RIPK2 levels were determined in PBMCs isolated from blood and where collected, in sampled colon tissue as described in the text.
# Blood was mixed with optiPREP (Sigma) and following centrifugation at 1300 × g the PBMCs layer was collected. For in vivo studies, RIPK2 levels were determined immediately via immunoblotting, whereas for in vitro studies PBMCs were treated as detailed in the in vitro treatment section.
# (§2) Statistics and reproducibility: All data were represented as percentage of the control sample: DMSO treated cells for the in vitro assays and the pre-dose or vehicle sample for the in vivo experiments.
# For in vivo studies, RIPK2:tubulin ratios and cytokine levels from each individual experiment were analysed either using a One-way ANOVA with Dunnet’s post-test or a two way ANOVA using GraphPad Prism 5.0.4 to determine statistical significance with 95% confidence levels.
# [3] = test system: L18-MDP-stimulated TNFα release; assay: TNFα after ex vivo L18-MDP stimulation of blood from dosed rats; type: in vivo, rat; parameters: key to TNFα after ex vivo L18-MDP stimulation: % of pre-dose or vehicle sample; conditions: for TNFα after ex vivo L18-MDP stimulation: fig 5b; for TNFa: fig 5e, individual rats 6-10, time 0 = 100; for TNFα inhibition (ex vivo L18-MDP): 0.05 mg/kg/day QD SC
# Protocol: Male CD or Wistar Han rats (7–9 weeks old, Charles River UK Ltd.) were randomly allocated to treatment groups upon arrival. Female CD rats (7–8 weeks old on arrival, Charles River Ltd.) were placed into groups using a randomization schedule based on body weight prior to the study start. All animals were acclimatized for a minimum of one week prior to the experiment commencing.
# Subcutaneous PROTAC solution formulations were prepared on the day of dosing as outlined below and filtered through a 0.22 µm Millex PVDF filter (Millipore) prior to PROTAC administration. PROTAC 4 was dissolved in saline with the pH adjusted to 5.0 with sodium hydroxide (1 M).
# as §1
# Cytokine measurement assay: Cytokine levels were measured in rat plasma or rat PBMCs cell culture supernatants using rat V-Plex TNFα, in human plasma or human PBMCs cell culture supernatants with either TNFα tissue culture or 7-plex kit. Rat serum and tissues samples from the in vivo L18-MDP acute inflammation model were analyzed using the rat TNFα, Il-6 and IL-8 U-Plex kits. All kits provided by Meso Scale Discovery (MSD). Levels of cytokines spontaneously released from human colon biopsies cell culture supernatants were measured using Human IL-1 beta/IL-1F2 DuoSet ELISA (Bio-techne), Human IL-6 ELISA (Immunotools) and Human TNF-alpha DuoSet ELISA (Bio-techne). All samples were processed accordingly to the manufacturer’s instructions. The MSD plates were analyzed using the MSD sector imager 6000 plate reader and cytokines concentration (pg/ml) was obtained by using the MSD DISCOVERY WORKBENCH software version 4.0.12.1
# as §2
smiles,measurement,setting,value
CN[C@@H](C)C(=O)N[C@H](C(=O)N1C[C@@H](NC(=O)c2cnc(N3CCN(CCCOc4cc5ncnc(Nc6n[nH]c(C)c6C)c5cc4S(=O)(=O)C(C)(C)C)CC3)cn2)C[C@H]1C(=O)Nc1c(F)cccc1F)C(C)(C)C [PROTAC 6],time drug levels were maintained above the LLQ after the first dose,[1],24 h
same,"RIPK2 level (time 0 = 100), unlabelled cell under rat 8","[2]; 0.005 mg/kg, equals the mean of the four other rats at 24 h, fig 5a",92.1904
same,RIPK2 level (time 0 = 100),"[2]; 0.005 mg/kg, time 24 h, rats 6-10, fig 5a",71.58 and 92.75 and 127.25 and 77.18
same,RIPK2 level (time 0 = 100),"[2]; 0.005 mg/kg, time 48 h, rats 6-10, fig 5a",107.66 and 189.11 and 139.36 and 104.71 and 114.34
same,RIPK2 level (time 0 = 100),"[2]; 0.05 mg/kg, time 6 h, rats 11-15, fig 5a",60.71 and 118.09 and 89.04 and 78.70 and 85.87
same,RIPK2 level (time 0 = 100),"[2]; 0.05 mg/kg, time 24 h, rats 11-15, fig 5a",70.75 and 59.91 and 86.01 and 67.12 and 70.61
same,RIPK2 level (time 0 = 100),"[2]; 0.5 mg/kg, time 72 h, rats 16-20, fig 5a",25.93 and 26.14 and 14.54 and 23.73 and 19.84
same,RIPK2,[2]; time 24 h,41.32 and 46.91 and 38.86 and 44.83 and 39.94
same,RIPK2,[2]; time 72 h,55.66 and 38.00 and 35.30 and 41.29 and 38.74
same,RIPK2 degradation,"[2]; rat, 0.05 mg/kg/day QD SC, last time point",> 70%
same,RIPK2 degradation,"[2]; rat, 0.5 mg/kg/day QD SC, 24 h",~ 70%
same,RIPK2 degradation,"[2]; rat, 0.5 mg/kg/day QD SC, last time point after third dose",> 90%
same,"effect on RIPK2 levels, in words","[2]; rat, single 0.005 mg/kg SC",no significant effect
same,"effect on RIPK2 protein levels, in words","[2]; rat, single 0.05 mg/kg SC",did not have a statistically significant effect
same,RIPK2 degradation,"[2]; rat, single 0.5 mg/kg SC, 6 h post-dose",53 ± 9%
same,RIPK2 degradation,"[2]; rat, single 0.5 mg/kg SC, 48 h",78 ± 5%
same,RIPK2 (time 0 = 100),[2]; time 6 h,85.25 and 86.14 and 86.72 and 88.07
same,RIPK2 (time 0 = 100),[2]; time 24 h,71.45 and 57.80 and 52.77 and 57.74
same,RIPK2 (time 0 = 100),[2]; time 30 h,42.20 and 43.44 and 40.14 and 48.21
same,RIPK2 (time 0 = 100),[2]; time 48 h,32.57 and 27.38 and 24.98 and 36.77
same,RIPK2 (time 0 = 100),[2]; time 54 h,24.47 and 24.71 and 23.45 and 32.20
same,TNFα after ex vivo L18-MDP stimulation,"[3]; 0.005 mg/kg, time 6 h, rats 6-10",103.74 and 107.75 and 89.01 and 67.06 and 122.94
same,TNFα after ex vivo L18-MDP stimulation,"[3]; 0.005 mg/kg, time 96 h, rats 6-10",59.51 and 62.83 and 97.91 and 70.36 and 61.76
same,TNFα after ex vivo L18-MDP stimulation,"[3]; 0.05 mg/kg, time 48 h, rats 11-15",25.93 and 24.59 and 27.99 and 42.15 and 37.98
same,TNFa,[3]; time 24 h,0.86 and 0.61 and 0.92 and 2.90 and 3.38
same,TNFa,[3]; time 72 h,13.57 and 6.85 and 8.80 and 22.86
same,"cumulative PD effect, in words","[3]; rat, 0.05 mg/kg Q3D SC",failed to show this cumulative PD effect
same,TNFα inhibition (ex vivo L18-MDP),"[3]; rat, 6 h post-dose",~ 60%
same,TNFα inhibition (ex vivo L18-MDP),"[3]; rat, 24 h post-dose",~ 60%
same,TNFα inhibition (ex vivo L18-MDP),"[3]; rat, 54 h (6 h after third dose)",> 90%
same,inhibition of TNFα release (ex vivo L18-MDP),"[3]; rat, 0.5 mg/kg/day QD SC, 24 h",> 90%
same,"effect on TNFα levels, in words","[3]; rat, single 0.005 mg/kg SC",no significant effect
same,inhibition of TNFα release upon ex vivo L18-MDP challenge,"[3]; rat, single 0.05 mg/kg SC, first 48 h",> 60%
same,inhibition of TNFα levels upon ex vivo whole blood L18-MDP challenge,"[3]; rat, single 0.5 mg/kg SC, over the duration of the study (5 days)",> 70%
same,TNFa (time 0 = 100),"[3]; time 72 h, rats 11-15, fig 5d",91.60 and 114.81 and 76.37 and 83.72
